This is an account of results in patent US11479587B2, “Cationic intrinsically disordered antimicrobial peptides” (priority 2016, dated 2022).

Where “and” joins values, the source holds several entries; their conditions need not be identical. Equal entries are not always repeated. Where two headings read alike, the source gives them in different places. Residues, ends and D or L forms follow the SMILES beside them.

The term MIC denotes the lowest concentration found to suppress growth. The CC50 is the concentration giving 50% cytotoxicity. A lower CC50 goes with greater toxicity to the cells.

The subject of one data set is S. aureus ATCC 6538. Kind of data set: CFU-assay, S. aureus-cidal activity. It is filed as cell-based, Staphylococcus aureus. The following applies: pH 5.5, 1% TSB. A digest of the protocol:
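Bactericidal CFU-assay in nutrient-deficient 10 mM sodium phosphate buffer pH 5.5 with 0.25% glucose, counting surviving colonies across twofold peptide dilutions from 300 μg/ml to 19 ng/ml. Output is minimal bactericidal concentration (e.g. MBC90, MBC100); some peptides also tested at pH 7.0.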

In data set [1] the test system is Escherichia coli ATCC11775. Kind of data set: CFU-assay, antimicrobial activity spectrum. It is filed as cell-based. The conditions noted are these: pH 5.5, 1% TSB.
The test system of data set [2] is Candida albicans ATCC 24433. Kind of data set: CFU-assay, Candida albicans-cidal activity. It is filed as cell-based. As to the method: Thus, within the present invention, the antimicrobial activity is generally measured in nutrient deficient 10 mM sodium phosphate buffer pH 5.5, containing 0.25% glucose, using the CFU-assay according to Steinberg and Lehrer, 1997 (supra), unless otherwise indicated. The CFU-assay allows determination of the minimal bactericidal concentration (MBC, e.g., MBC90 and MBC100; i.e. the concentration of compound required to achieve a specified reduction in bacterial cell number (microbial death or killing)). […]
HR 1-17 affects C. albicans ATCC 24433 with highest activity at pH 5.5 in the absence of TSB in the medium (see Tables 12, 24). […] Furthermore, the substitution of any of the Arg residues by Gly leads to a dramatic reduction or loss of candidacidal activity (see Table 24).

Another data set deals with P. aeruginosa ATCC 10145. Kind of data set: CFU-assay, P. aeruginosa-cidal activity. The class given is cell-based, Pseudomonas aeruginosa.
For data set [3], the system named is Burkholderia cepacia ATCC 25416. Kind of data set: CFU-assay, Burkholderia cepacia-cidal activity. It is filed as cell-based. The following applies: pH 5.5, 0.25% glucose.
Data set [4] deals with methicillin-resistant S. aureus strain (ATCC 43300). The class given is cell-based, Staphylococcus aureus. As to the method: Furthermore, sensitivity of a methicillin-resistant S. aureus strain (ATCC 43300) was investigated for palmitoylated CIDAMPs in a microtiter plate screening model, with incubation in Mueller-Hinton medium at 37° C. for 18 h using resazurin as a marker for cell viability.
A sample of each culture was then diluted 40-fold in fresh broth and incubated at 37° C. for 1.5-3 h. […] All the plates were covered and incubated at 37° C. for 18 h.
(§1) Inhibition of bacterial growth was determined using resazurin as a marker for cell viability. Resazurin was added to each well, at 0.001% final concentration, and plates incubated at 37° C. for 2 h. Fluorescence intensity was measured, using F (top read), ex 560/10 nm, em 590/10 nm, using a Tecan M1000 Pro monochromator plate reader.

A short description of another data set: Hemolysis assay. The class given is cell-based. A digest of the protocol:
(§2)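 Washed EDTA-blood erythrocytes in 5% PBS, pH 7.4, were rotated 1 h at 37° C with peptides at 0, 3, 10, 30, 60 μm. Hemoglobin release read at 540 nm as % of 0.1% Triton X-100 hemolysis; CC50 from dose-response curve of triplicates.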

For the next data set, the system named is erythrocytes. Kind of data set: Hemolysis assay. The class given is cell-based. A digest of the protocol: as §2
Another data set has as its system A. baumannii ATCC 19606. The class given is cell-based, Acinetobacter baumannii. The protocol: as §1
The test system of another data set is E. coli ATCC 25922. It is filed as cell-based, Escherichia coli. As to the method:
as §1

The nature of data set [5]: Cytotoxicity (resazurin) assay. A digest of the protocol:
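CC50 values were derived by fitting concentration-dependent percentage cytotoxicity to a dose–response function. The read-out was resazurin fluorescence (ex 560, em 590 nm; 100 μM, 3 h) after 20 h compound treatment of HEK293 cells at 37 °C in DMEM with 10% FBS.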

For the next data set, the system named is P. aeruginosa ATCC 27853. It is filed as cell-based, Pseudomonas aeruginosa. The following applies: ATCC 27853, 2 h. As to the method: as §1
[6] abbreviates: erythrocytes, read-out: Hemolysis (CC50).

Consider “GRHGSGLGHSSSHGQHGSGSGRSSSRGPY (Peptide derived from human hornerin (HR 1-17))”, for which the MBC90 was greater than 300 µg/mL in the data set on S. aureus ATCC 6538; greater than 300 µg/mL in data set [1]; 0.56 µM in data set [2]; 1.18 µg/mL in data set [2] (pH 5.5, 0.25% glucose); greater than 300 µg/mL in [2] (pH 7.2, 1.% TSB); 0.038 µg/mL and 0.0375 µg/mL in the data set with P. aeruginosa ATCC 10145 (pH 5.0, 0.25% glucose). The MBC90 was 0.59 µg/mL against P. aeruginosa ATCC 10145 (pH 5.5, 1% TSB) and greater than 300 µg/mL in data set [3]. Besides, the MBC100 is greater than 300 µg/mL in the data set with S. aureus ATCC 6538; greater than 300 µg/mL in data set [1]; 9.38 µg/mL in data set [2] (pH 5.5, 0.25% glucose); 150 µg/mL and >300 µg/mL in [2] (pH 5.5, 1% TSB); greater than 300 µg/mL in data set [2] (pH 7.2, 1.% TSB); 0.15 µg/mL with P. aeruginosa ATCC 10145 (pH 5.0, 0.25% glucose). Also, the MBC100 against P. aeruginosa ATCC 10145 (pH 5.5, 0.25% glucose) was 0.15 µg/mL and 0.3 µg/mL; against P. aeruginosa ATCC 10145 (pH 5.5, 1% TSB), 18.75 µg/mL; in data set [3], greater than 300 µg/mL.
Molecule `CCCCCCCCCCCCCCCC(=O)NCC(=O)N[C@@H](CCCNC(=N)N)C(=O)N[C@@H](CCCNC(=N)N)C(=O)NCC(=O)N[C@@H](CO)C(=O)NCC(=O)N[C@@H](CC(C)C)C(=O)NCC(=O)N[C@@H](CCCNC(=N)N)C(=O)N[C@@H](CO)C(=O)N[C@@H](CO)C(=O)N[C@@H](CO)C(=O)N[C@@H](CCCNC(=N)N)C(=O)NCC(=O)N[C@@H](CCC(N)=O)C(=O)N[C@@H](CCCNC(=N)N)C(=O)NCC(=O)N[C@@H](CO)C(=O)NCC(=O)N[C@@H](CO)C(=O)NCC(=O)N[C@@H](CCCNC(=N)N)C(=O)O` [Pal-HR 1-18 HR] (HELM PEPTIDE1{[CCCCCCCCCCCCCCCC(=O)[*:2]].G.R.R.G.S.G.L.G.R.S.S.S.R.G.Q.R.G.S.G.S.G.R}$$$$V2.0) yielded an MIC in the data set with C. albicans ATCC 928 (ATCC 928, 18 h, pH 7.4) of 1 to 32 µg/mL. The “MIC, S. aureus ATCC 43300” value in [4] (ATCC 43300, 18 h) is no less than 8 µg/mL. For the same molecule, the HC50 in “Hemolysis assay” was greater than 300 µg/mL. Moreover, the HC50 at 1 h in the data set “Hemolysis assay” (human, washed erythrocytes from EDTA-blood, pH 7.4) was greater than 119 µM. Also, in the data set with erythrocytes, the “hemolytic activity (in words)” value was “low hemolytic activity”. Besides, the “MIC, C. neoformans ATCC 208821” value in the data set on C. neoformans is no less than 1 µg/mL. In the data set on A. baumannii ATCC 19606 (ATCC 19606, 2 h), the “MIC, A. baumannii ATCC 19606” value was no less than 1 µg/mL. For the same molecule, the “MIC, E. coli ATCC 25922” value in the data set on E. coli ATCC 25922 (ATCC 25922, 2 h) was no less than 4 µg/mL. For the same molecule, the 50% cytotoxic concentration (CC50) in [5] was > 32 µg/mL and > 13.3 µM. For the same molecule, in the data set with P. aeruginosa ATCC 27853, the “MIC, P. aeruginosa ATCC 27853” value was no less than 16 µg/mL.
Take `CCCCCCCCCCCCCCCC(=O)NCC(=O)N[C@@H](CCCNC(=N)N)C(=O)N[C@@H](CCCNC(=N)N)C(=O)NCC(=O)NCC(=O)N[C@@H](CCCNC(=N)N)C(=O)NCC(=O)NCC(=O)N[C@@H](CCCNC(=N)N)C(=O)NCC(=O)N[C@@H](CCCNC(=N)N)C(=O)O` [Pal-GR11] (HELM PEPTIDE1{[CCCCCCCCCCCCCCCC(=O)[*:2]].G.R.R.G.G.R.G.G.R.G.R}$$$$V2.0): the “MIC, C. albicans ATCC 90028” value in the data set on C. albicans ATCC 928 (ATCC 928) is no less than 4 µg/mL. In [4] (ATCC 43300, 18 h), the “MIC, S. aureus ATCC 43300” value was no less than 4 µg/mL. This molecule also came in with an HC50 in “Hemolysis assay” of 90 µg/mL. Besides, the “MIC, C. neoformans ATCC 208821” value against C. neoformans is no less than 4 µg/mL. The “MIC, A. baumannii ATCC 19606” value in the data set with A. baumannii ATCC 19606 (ATCC 19606, 2 h) was no less than 8 µg/mL. For the same molecule, the “MIC, E. coli ATCC 25922” value in the data set on E. coli ATCC 25922 (ATCC 25922, 2 h) is no less than 8 µg/mL. For the same molecule, the CC50 in [5] was greater than 32 µg/mL. Further, the “MIC, P. aeruginosa ATCC 27853” value with P. aeruginosa ATCC 27853 is no less than 16 µg/mL.
For the molecule `CCCCCCCCCCCCCCCC(=O)NCC(=O)N[C@@H](CCCNC(=N)N)C(=O)N[C@@H](CCCNC(=N)N)C(=O)NCC(=O)N[C@@H](CO)C(=O)NCC(=O)N[C@@H](CC(C)C)C(=O)NCC(=O)N[C@@H](CCCNC(=N)N)C(=O)N[C@@H](CO)C(=O)N[C@@H](CO)C(=O)N[C@@H](CO)C(=O)N[C@@H](CCCNC(=N)N)C(=O)O` [Pal-HR 1-18 3H3R-GR13] (HELM PEPTIDE1{[CCCCCCCCCCCCCCCC(=O)[*:2]].G.R.R.G.S.G.L.G.R.S.S.S.R}$$$$V2.0), the “MIC, S. aureus ATCC 43300” value in data set [4] (ATCC 43300, 18 h) was no less than 16 µg/mL. The HC50 in “Hemolysis assay” is greater than 300 µg/mL. Moreover, the “hemolytic activity (in words)” value in the data set with erythrocytes is on record as “low hemolytic activity”. The “MIC, C. neoformans ATCC 208821” value against C. neoformans is no less than 16 µg/mL. The “MIC, A. baumannii ATCC 19606” value against A. baumannii ATCC 19606 (ATCC 19606, 2 h) was no less than 16 µg/mL. This molecule also showed a 50% cytotoxic concentration (CC50) in data set [5] greater than 32 µg/mL.
`CCCCCCCCCCCCCCCC(=O)N[C@@H](CCCNC(=N)N)C(=O)NCC(=O)N[C@@H](CO)C(=O)N[C@@H](CCCNC(=N)N)C(=O)N[C@@H](CO)C(=O)NCC(=O)N[C@@H](CCC(N)=O)C(=O)N[C@@H](CO)C(=O)N[C@@H](CO)C(=O)N[C@@H](CCCNC(=N)N)C(=O)NCC(=O)N[C@@H](CCC(=O)O)C(=O)N[C@@H](CCCNC(=N)N)C(=O)N[C@@H](CCCNC(=N)N)C(=O)NCC(=O)N[C@@H](CO)C(=O)N[C@@H](CO)C(=O)N[C@@H](CO)C(=O)NCC(=O)N[C@@H](CO)C(=O)N[C@@H](CO)C(=O)N[C@@H](CO)C(=O)N[C@@H](CCCNC(=N)N)C(=O)O` [Pal-HR 1-11 3H3R] (HELM PEPTIDE1{[CCCCCCCCCCCCCCCC(=O)[*:2]].R.G.S.R.S.G.Q.S.S.R.G.E.R.R.G.S.S.S.G.S.S.S.R}$$$$V2.0): in the data set with C. albicans ATCC 928, the “MIC, C. albicans ATCC 90028” value was no less than 32 µg/mL. Also, the “MIC, S. aureus ATCC 43300” value in data set [4] (Mueller-Hinton medium) is greater than 32 µg/mL. The HC50 in “Hemolysis assay” (setting [6]) is greater than 300 µg/mL. For the same molecule, in the data set with C. neoformans, the “MIC, C. neoformans ATCC 208821” value is no less than 32 µg/mL. In addition, the “MIC, A. baumannii ATCC 19606” value with A. baumannii ATCC 19606 (Mueller-Hinton medium) is no less than 8 µg/mL. Also, the “MIC, E. coli ATCC 25922” value in the data set on E. coli ATCC 25922 (Mueller-Hinton medium) is no less than 32 µg/mL. For the same molecule, the CC50 in [5] was greater than 32 µg/mL.
Take `CCCCCCCCCCCCCCCC(=O)N[C@@H](CCCNC(=N)N)C(=O)NCC(=O)N[C@@H](CO)C(=O)N[C@@H](CCCNC(=N)N)C(=O)N[C@@H](CO)C(=O)NCC(=O)N[C@@H](CCC(N)=O)C(=O)N[C@@H](CO)C(=O)N[C@@H](CO)C(=O)N[C@@H](CCCNC(=N)N)C(=O)NCC(=O)N[C@@H](CCC(=O)O)C(=O)N[C@@H](CCCNC(=N)N)C(=O)N[C@@H](CCCNC(=N)N)C(=O)O` [Pal-HR 1-11 2H2R-14] (HELM PEPTIDE1{[CCCCCCCCCCCCCCCC(=O)[*:2]].R.G.S.R.S.G.Q.S.S.R.G.E.R.R}$$$$V2.0): the “MIC, S. aureus ATCC 43300” value in data set [4] (Mueller-Hinton medium) was no less than 8 µg/mL. Moreover, the HC50 in the data set “Hemolysis assay” (setting [6]) is greater than 300 µg/mL. Moreover, the “MIC, C. neoformans ATCC 208821” value against C. neoformans is no less than 8 µg/mL. Also, the “MIC, A. baumannii ATCC 19606” value against A. baumannii ATCC 19606 (Mueller-Hinton medium) was no less than 4 µg/mL. The “MIC, E. coli ATCC 25922” value with E. coli ATCC 25922 (Mueller-Hinton medium) was no less than 8 µg/mL. The molecule also displayed a 50% cytotoxic concentration (CC50) in data set [5] greater than 32 µg/mL.
